From PubChem BioAssay (NCI)
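Where inhibition never reached the appropriate level, the endpoint shown equals the highest concentration tested. Otherwise, values were interpolated linearly from a five-concentration, 48-hour dose response in 96-well plates. At the TGI there is no net growth.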

Columns and labels:
Assay in all cases: NCI tumour cell line growth inhibition, 48 h
[1] = tested on: 786-0 renal
[2] = tested on: A498 renal
[3] = tested on: A549 NSCLC
[4] = tested on: ACHN renal
[5] = tested on: CAKI-1 renal
[6] = tested on: CCRF-CEM leukemia
[7] = tested on: COLO 205 colon
[8] = tested on: DLD-1 colon
[9] = tested on: DMS 114 small cell lung
[10] = tested on: DMS 273 small cell lung
[11] = tested on: EKVX NSCLC
[12] = tested on: HCC-2998 colon
[13] = tested on: HCT-116 colon
[14] = tested on: HCT-15 colon
[15] = tested on: HL-60(TB) leukemia
[16] = tested on: HOP-18 NSCLC
[17] = tested on: HOP-62 NSCLC
[18] = tested on: HOP-92 NSCLC
[19] = tested on: HT29 colon
[20] = tested on: IGROV1 ovarian
[21] = tested on: K-562 leukemia
[22] = tested on: KM12 colon
[23] = tested on: KM20L2 colon
[24] = tested on: LOX IMVI melanoma
[25] = tested on: LXFL 529 NSCLC
[26] = tested on: M14 melanoma
[27] = tested on: M19-MEL melanoma
[28] = tested on: MALME-3M melanoma
[29] = tested on: MOLT-4 leukemia
[30] = tested on: NCI-H226 lung
[31] = tested on: NCI-H23 lung
[32] = tested on: NCI-H460 lung
[33] = tested on: NCI-H522 lung
[34] = tested on: OVCAR-3 ovarian
[35] = tested on: OVCAR-4 ovarian
[36] = tested on: OVCAR-8 ovarian
[37] = tested on: RXF 393 renal
[38] = tested on: RXF-631 renal
[39] = tested on: SF-268 CNS
[40] = tested on: SF-295 CNS
[41] = tested on: SF-539 CNS
[42] = tested on: SK-MEL-2 melanoma
[43] = tested on: SK-MEL-28 melanoma
[44] = tested on: SK-MEL-5 melanoma
[45] = tested on: SK-OV-3 ovarian
[46] = tested on: SN12C renal
[47] = tested on: SNB-19 CNS
[48] = tested on: SNB-75 CNS
[49] = tested on: SNB-78 CNS
[50] = tested on: SR leukemia
[51] = tested on: SW-620 colon
[52] = tested on: TK-10 renal
[53] = tested on: U251 CNS
[54] = tested on: UACC-257 melanoma
[55] = tested on: UACC-62 melanoma
[56] = tested on: UO-31 renal
[57] = tested on: OVCAR-5 ovarian
[58] = tested on: RPMI-8226 leukemia
[59] = tested on: XF 498 CNS

`O=C(Cc1nc2ccccc2c(=O)n1-c1c(Cl)cccc1Cl)c1ccncc1` gave a TGI [1] of 88.9 µM, a TGI [2] of 72.3 µM and a TGI [3] of 46.9 µM. The TGI [4] was 42.4 µM, the TGI [5] was 86.1 µM and the TGI [6] was 45.2 µM. For the same molecule, the TGI [7] was 33.6 µM, the TGI [8] was greater than 100 µM and the TGI [9] was 78.6 µM. It also gave a TGI [10] of 40.6 µM, a TGI [11] greater than 100 µM and a TGI [12] of 44.2 µM. The TGI [13] was 39.7 µM, the TGI [14] was greater than 100 µM and the TGI [15] was 30.6 µM. The TGI [16] was 93.1 µM, the TGI [17] was 47.9 µM and the TGI [18] was 69.8 µM. It also gave a TGI [19] of 45.8 µM, a TGI [20] of 49.7 µM and a TGI [21] greater than 100 µM. For the same molecule, the TGI [22] was 32.3 µM, the TGI [23] was 85.9 µM and the TGI [24] was greater than 10 µM. The TGI [25] was greater than 100 µM, the TGI [26] was greater than 100 µM and the TGI [27] was 39.6 µM. The TGI [28] was 56.2 µM, the TGI [29] was 42.2 µM and the TGI [30] was greater than 10 µM. The TGI [31] was greater than 100 µM, the TGI [32] was 52.2 µM and the TGI [33] was 49.5 µM. It also gave a TGI [34] of 77.8 µM, a TGI [35] of 80.7 µM and a TGI [36] greater than 100 µM. For the same molecule, the TGI [37] was 65.7 µM, the TGI [38] was 63.3 µM and the TGI [39] was greater than 100 µM. It also gave a TGI [40] of 36.5 µM, a TGI [41] of 34.5 µM and a TGI [42] of 46.3 µM. For the same molecule, the TGI [43] was 43.6 µM, the TGI [44] was 29.4 µM and the TGI [45] was greater than 100 µM. The TGI [46] was greater than 100 µM, the TGI [47] was greater than 100 µM and the TGI [48] was 68.2 µM. For the same molecule, the TGI [49] was greater than 100 µM, the TGI [50] was 39.8 µM and the TGI [51] was greater than 100 µM. For the same molecule, the TGI [52] was greater than 10 µM, the TGI [53] was greater than 100 µM and the TGI [54] was 54.3 µM. For the same molecule, the TGI [55] was 56.6 µM and the TGI [56] was 55 µM.

Molecule `CC(=O)OCCOCNC(=S)N/N=C/c1ccc2ccccc2n1` has a TGI [1] greater than 100 µM, a TGI [2] greater than 100 µM and a TGI [3] greater than 100 µM. For the same molecule, the TGI [4] was greater than 100 µM, the TGI [6] was greater than 100 µM and the TGI [7] was 46.6 µM. It also gave a TGI [8] greater than 100 µM, a TGI [9] of 71.3 µM and a TGI [10] greater than 100 µM. It also gave a TGI [11] greater than 100 µM, a TGI [12] greater than 100 µM and a TGI [13] greater than 100 µM. For the same molecule, the TGI [14] was greater than 100 µM, the TGI [15] was greater than 100 µM and the TGI [16] was greater than 100 µM. For the same molecule, the TGI [17] was greater than 100 µM, the TGI [19] was greater than 100 µM and the TGI [20] was greater than 100 µM. For the same molecule, the TGI [21] was greater than 100 µM, the TGI [22] was greater than 100 µM and the TGI [23] was 79.8 µM. For the same molecule, the TGI [24] was greater than 100 µM, the TGI [25] was greater than 100 µM and the TGI [26] was greater than 100 µM. It also gave a TGI [27] greater than 100 µM, a TGI [28] greater than 100 µM and a TGI [29] greater than 100 µM. It also gave a TGI [30] greater than 100 µM, a TGI [31] greater than 100 µM and a TGI [32] greater than 100 µM. The TGI [33] was 62.7 µM, the TGI [34] was greater than 100 µM and the TGI [35] was greater than 100 µM. For the same molecule, the TGI [57] was 65.5 µM, the TGI [36] was greater than 100 µM and the TGI [58] was greater than 100 µM. For the same molecule, the TGI [37] was greater than 100 µM, the TGI [38] was greater than 100 µM and the TGI [39] was greater than 100 µM. For the same molecule, the TGI [40] was greater than 100 µM, the TGI [41] was greater than 100 µM and the TGI [42] was greater than 100 µM. For the same molecule, the TGI [43] was greater than 100 µM, the TGI [44] was 60.8 µM and the TGI [45] was greater than 100 µM. The TGI [46] was greater than 100 µM, the TGI [47] was greater than 100 µM and the TGI [48] was greater than 100 µM. It also gave a TGI [49] greater than 100 µM, a TGI [50] greater than 100 µM and a TGI [51] greater than 100 µM. The TGI [52] was greater than 100 µM, the TGI [53] was greater than 100 µM and the TGI [54] was greater than 100 µM. It also gave a TGI [55] of 47.6 µM, a TGI [56] greater than 100 µM and a TGI [59] greater than 100 µM.

`CC1=C(C)C(=O)C2=C(OCCCO2)C1=O` showed a TGI [1] of 33.3 µM, a TGI [3] greater than 100 µM and a TGI [4] of 32.4 µM. The TGI [6] was 8.11 µM, the TGI [7] was greater than 100 µM and the TGI [9] was 33.5 µM. The TGI [11] was 31 µM, the TGI [12] was greater than 100 µM and the TGI [14] was greater than 100 µM. The TGI [15] was 19 µM, the TGI [17] was greater than 100 µM and the TGI [19] was 46.3 µM. The TGI [20] was 33.3 µM, the TGI [21] was 54 µM and the TGI [23] was greater than 100 µM. It also gave a TGI [25] of 31.9 µM, a TGI [26] of 30.7 µM and a TGI [27] of 33.3 µM. For the same molecule, the TGI [29] was 5.33 µM, the TGI [33] was 33.1 µM and the TGI [34] was 32 µM. The TGI [36] was 32.9 µM, the TGI [58] was 36.1 µM and the TGI [38] was 31.5 µM. The TGI [39] was 33.2 µM, the TGI [40] was 70.9 µM and the TGI [43] was greater than 100 µM. The TGI [45] was greater than 100 µM, the TGI [47] was greater than 100 µM and the TGI [48] was 51.7 µM. It also gave a TGI [50] of 44.9 µM, a TGI [51] of 31.2 µM and a TGI [53] greater than 100 µM. The TGI [55] was 32.7 µM and the TGI [56] was 30.1 µM.

`CCCCSN1C(=O)c2ccccc2C1=S` was tested, and the TGI [1] was greater than 100 µM, the TGI [2] was greater than 100 µM and the TGI [3] was greater than 100 µM. The TGI [4] was greater than 100 µM, the TGI [5] was greater than 100 µM and the TGI [6] was 53 µM. It also gave a TGI [7] greater than 100 µM, a TGI [8] greater than 100 µM and a TGI [9] greater than 100 µM. For the same molecule, the TGI [10] was greater than 100 µM, the TGI [11] was greater than 100 µM and the TGI [12] was greater than 100 µM. The TGI [13] was greater than 100 µM, the TGI [14] was greater than 100 µM and the TGI [15] was 51.2 µM. For the same molecule, the TGI [17] was greater than 100 µM, the TGI [18] was greater than 100 µM and the TGI [19] was greater than 100 µM. For the same molecule, the TGI [20] was greater than 100 µM, the TGI [21] was 69.5 µM and the TGI [22] was greater than 100 µM. It also gave a TGI [24] greater than 100 µM, a TGI [26] greater than 100 µM and a TGI [27] greater than 100 µM. For the same molecule, the TGI [28] was greater than 100 µM, the TGI [29] was 50.3 µM and the TGI [31] was greater than 100 µM. For the same molecule, the TGI [32] was greater than 100 µM, the TGI [34] was greater than 100 µM and the TGI [35] was greater than 100 µM. For the same molecule, the TGI [57] was greater than 100 µM, the TGI [36] was greater than 100 µM and the TGI [58] was 49.4 µM. For the same molecule, the TGI [37] was greater than 100 µM, the TGI [38] was greater than 100 µM and the TGI [39] was greater than 100 µM. For the same molecule, the TGI [40] was greater than 100 µM, the TGI [41] was greater than 100 µM and the TGI [42] was greater than 100 µM. It also gave a TGI [43] greater than 100 µM, a TGI [44] greater than 100 µM and a TGI [45] greater than 100 µM. For the same molecule, the TGI [46] was greater than 100 µM, the TGI [47] was greater than 100 µM and the TGI [48] was greater than 100 µM. The TGI [49] was greater than 100 µM, the TGI [51] was greater than 100 µM and the TGI [52] was greater than 100 µM. For the same molecule, the TGI [53] was greater than 100 µM, the TGI [54] was greater than 100 µM and the TGI [55] was greater than 100 µM. It also gave a TGI [56] greater than 100 µM and a TGI [59] greater than 100 µM.
